Assay: Human HepG2 cell viability assay in 384 well format
Type: toxicity, cell-based
Parameters: dose 125 nL, time 70.5 hour; concentration not given beside the values
Settings: HepG2 cells, read-out: Inhibition

O=C(NC1CC1)N1CCc2ccc(=O)n(CCN3CCCC3)c2CC1
cytotoxicity at 70.5 h: 0.272%

CC(C)=CCN1C[C@@H](C(=O)O)C[C@H](C(=O)Nc2ccc(C)nc2)C1
cytotoxicity at 70.5 h: -8.07%

COc1ccc(C)cc1CN(C)CC(N)=O
cytotoxicity at 70.5 h: -7.37%

O=C(Nc1cc(C(F)(F)F)c[nH]c1=O)C1CCCCN1 (stereo unspecified)
cytotoxicity at 70.5 h: -8.9%

Cc1cnc(N2CCN3C[C@H](OCc4cccc(C)n4)C[C@H]3C2)nc1
cytotoxicity at 70.5 h: 0.481%

Cc1ccc(CNC(c2cccc(F)c2)c2nccn2C)o1 (stereo unspecified)
cytotoxicity at 70.5 h: -3%

CCCS(=O)(=O)N1C[C@@H](c2ccccc2)[C@@]2(CCNC2=O)C1
cytotoxicity at 70.5 h: 5.81%

CC(C)OCC(=O)Nc1ccc(Oc2ccc3c(c2)OCO3)nc1
cytotoxicity at 70.5 h: -5.21%

Cc1ccc(C(NC(=O)CN2CCc3c(ncn3C)C2)C2CC2)cc1 (stereo unspecified)
cytotoxicity at 70.5 h: -16.3%

COCC(=O)N1CCCC1c1cccc(Cc2ccccc2F)n1 (stereo unspecified)
cytotoxicity at 70.5 h: -1.54%

CN(C)CCNC(=O)c1nc2c(o1)CN(c1ncccn1)C2
cytotoxicity at 70.5 h: -3.63%

Cc1noc(Cl)c1CC(=O)N1CCC(Nc2cccnn2)CC1
cytotoxicity at 70.5 h: -1.04%

O=C1CC2(CCCCN2C(=O)c2ccoc2)CN1Cc1ccccc1 (stereo unspecified)
cytotoxicity at 70.5 h: 3.41%

COc1ncccc1CNCc1c(C)nn(C)c1N(C)C
cytotoxicity at 70.5 h: 19.7%

CCC(CC)C(=O)N1CCC(c2nn(CCN)c3nccnc23)C1 (stereo unspecified)
cytotoxicity at 70.5 h: -4.84%

CC(C)c1ncc2c(n1)CN(c1ncnc3[nH]ccc13)CC2
cytotoxicity at 70.5 h: 17.1%

CC(=O)N1CCC(c2nccnc2Nc2cnccn2)CC1
cytotoxicity at 70.5 h: -10.2%

COc1ccc(OC)c(S(=O)(=O)NC(=O)C(C)OC)c1 (stereo unspecified)
cytotoxicity at 70.5 h: -13.3%

CCc1nnc(C2Cc3ccccc3CN2Cc2cc(C)on2)o1 (stereo unspecified)
cytotoxicity at 70.5 h: -2.94%

COC(=O)c1cccc(C(=O)NCc2ccc(C)o2)n1
cytotoxicity at 70.5 h: -18.5%

O=C1[C@H]2CN(Cc3nccs3)C[C@H]2CN1c1ccsc1
cytotoxicity at 70.5 h: -1.21%

CC(NC(=O)CCS(=O)(=O)C1CCCC1)c1nc(-c2ccccc2)c[nH]1 (stereo unspecified)
cytotoxicity at 70.5 h: -3.16%

Cc1ccsc1CN1C[C@@H]2COC[C@]2(CNC(=O)c2ccco2)C1
cytotoxicity at 70.5 h: -6.31%

O=C(C1=CCCC1)N1C[C@@H]2COC[C@]2(COCc2ccncc2)C1
cytotoxicity at 70.5 h: -3.75%

COc1ccc(C(=O)N2CCCCC2c2nccs2)c(OC)c1 (stereo unspecified)
cytotoxicity at 70.5 h: -6.39%

CCN1CCCn2c(nc(CNC(=O)c3cnoc3C)cc2=O)C1
cytotoxicity at 70.5 h: 5.12%

COc1cccnc1NC(=O)COc1ccc(F)cc1F
cytotoxicity at 70.5 h: -6.39%

CC(C)Nc1nc2c(cc1C(=O)NCC1CC1)CCN(S(C)(=O)=O)CC2
cytotoxicity at 70.5 h: -6.91%

Cc1cccc(OC2CCN(C(=O)CNC(=O)N(C)C)CC2)c1
cytotoxicity at 70.5 h: -0.834%

O=C(c1cocn1)N1CCC2(CC1)CC(OCC1CC1)CO2 (stereo unspecified)
cytotoxicity at 70.5 h: -8.99%

CCN(CC)CCn1cc(NC(=O)Nc2ccccc2OC)cn1
cytotoxicity at 70.5 h: -11.6%

Cc1ccc(F)c2c1CCCN2C(=O)Cc1c(C)nn(C)c1C
cytotoxicity at 70.5 h: -5.29%

Cc1cccc(CN2CCc3onc(CN(C)C)c3C2)n1
cytotoxicity at 70.5 h: 0.439%

O=C(COC1CCCCC1)N1CCN(C(=O)Cc2ccccn2)CC1
cytotoxicity at 70.5 h: -6.92%

CCN1CCN(S(=O)(=O)N2CCc3ccccc3C2)[C@H]2CS(=O)(=O)C[C@H]21
cytotoxicity at 70.5 h: -9.8%

Cc1csc(NC(=O)C2(C)CN(C)CCO2)n1 (stereo unspecified)
cytotoxicity at 70.5 h: 1.56%

Cc1ccc(C(CNC(=O)NCc2cc[nH]n2)N2CCOCC2)o1 (stereo unspecified)
cytotoxicity at 70.5 h: -14.3%

CC(C(=O)NCCOc1ccc2c(c1)OCO2)n1cncn1 (stereo unspecified)
cytotoxicity at 70.5 h: -13.4%

CCS(=O)(=O)c1ccccc1N1CCC(NC(=O)C2CC2)CC1
cytotoxicity at 70.5 h: 1.87%

CCn1nc(C)c2c1cnn2CCNS(=O)(=O)Cc1ccccc1
cytotoxicity at 70.5 h: 11.3%

CN(Cc1ccccc1C#N)C1CCN(CCc2ccccn2)CC1
cytotoxicity at 70.5 h: -3.57%

Cc1cccc(C2CCCCN2C(=O)CCCS(C)(=O)=O)c1C (stereo unspecified)
cytotoxicity at 70.5 h: -9.93%

Cc1ccc(CNC(=O)CN2CCN(CCO)CC2)s1
cytotoxicity at 70.5 h: -6.79%

Cc1c(CN2CCc3nc4sccc4c(=O)n3CC2)cnn1C
cytotoxicity at 70.5 h: -6.65%

CCn1cc(S(=O)(=O)NC2CCCN(CC3CCCCC3)C2)cn1 (stereo unspecified)
cytotoxicity at 70.5 h: 15.9%

CN(Cc1ccccc1)c1ncccc1CNC1CN2CCC1CC2 (stereo unspecified)
cytotoxicity at 70.5 h: -6.82%

Cc1nc(CC(=O)N2CCCC2c2nc(-c3ccccc3)no2)cs1 (stereo unspecified)
cytotoxicity at 70.5 h: -3.06%

Cc1cc(=O)[nH]c(NCCNC(=O)c2ccccc2N2CCCC2)n1
cytotoxicity at 70.5 h: 32.3%

CCCS(=O)(=O)NCc1cccnc1OCC
cytotoxicity at 70.5 h: -6.74%

CCc1noc(C(C)N2CCN(C)CC2)n1 (stereo unspecified)
cytotoxicity at 70.5 h: -7.05%

CC(C)n1cnc(C2CN(C)c3ccc(C(=O)NC4CCCC4)cc32)n1 (stereo unspecified)
cytotoxicity at 70.5 h: -5.54%

CCOCC1CN(S(C)(=O)=O)Cc2ncn(CC3CC3)c21 (stereo unspecified)
cytotoxicity at 70.5 h: 3.76%

COCC(NC(=O)NCc1sccc1C)c1ccco1 (stereo unspecified)
cytotoxicity at 70.5 h: 1.36%

Cc1csc(NC(=O)CN2CCc3nn(C)c(=O)cc3C2)n1
cytotoxicity at 70.5 h: -8.05%

Cc1noc(CCCC(=O)NC(C)c2nnc3n2CCC3)n1 (stereo unspecified)
cytotoxicity at 70.5 h: -4.98%

CN(Cc1ccsc1)C(=O)c1ccc(F)c(NS(C)(=O)=O)c1
cytotoxicity at 70.5 h: -3.77%

CCSCCNc1nc(-c2ccccn2)nc2c1c(C)nn2C
cytotoxicity at 70.5 h: 2.98%

CCOCCCNC(=O)CN(c1ccc(F)c(F)c1)S(C)(=O)=O
cytotoxicity at 70.5 h: -12.9%

CC1CN(C)CCN1CC(=O)NCCOc1ccc2c(c1)OCO2 (stereo unspecified)
cytotoxicity at 70.5 h: 9.64%

COc1ncccc1CN1C[C@H]2CCN(c3ccc(C)nn3)C[C@H]2C1
cytotoxicity at 70.5 h: 20%

O=C(c1cc2c(s1)CCC2)N1CCCC1Cn1cccn1 (stereo unspecified)
cytotoxicity at 70.5 h: -1.69%

COC(=O)NCC(=O)N1CCCCC1c1nc2cc(F)ccc2[nH]1 (stereo unspecified)
cytotoxicity at 70.5 h: 1.25%

CC(=O)N1CCC(c2nc3ccc(-c4ccnn4C)cn3n2)CC1
cytotoxicity at 70.5 h: -12.4%

CC(=O)N1CC[C@H]2CC(=O)N(CCc3c[nH]cn3)CC[C@H]2C1
cytotoxicity at 70.5 h: -2.6%

NC(=O)c1csc(N2C[C@@H](CN3CCC(O)CC3)[C@@H](CO)C2)n1
cytotoxicity at 70.5 h: -6.31%

Cc1cc(C)nc(C2CCN(C(=O)c3c(C)noc3C)C2)n1 (stereo unspecified)
cytotoxicity at 70.5 h: -3.76%

CCn1nc(C)c(C(=O)NCc2csc(C3CC3)n2)c1C
cytotoxicity at 70.5 h: 1.51%

CCn1nc(C)c2nnn(CC(=O)Nc3ccccc3F)c(=O)c21
cytotoxicity at 70.5 h: -4.52%

N#CCCN(Cc1cccnc1)C(=O)c1cc(Cl)c[nH]1
cytotoxicity at 70.5 h: -7.86%

Fc1cccc(O[C@@H]2C[C@H]3CN(Cc4ccccn4)CCN3C2)c1
cytotoxicity at 70.5 h: 27.5%

Cc1noc(CCCC(=O)N2CCCC2c2ccsc2)n1 (stereo unspecified)
cytotoxicity at 70.5 h: -8.85%

COCC(=O)NCc1nn(CCN2CCCC2)c(=O)c2ccccc12
cytotoxicity at 70.5 h: 29%

COC(=O)C(NC(=O)C1CCCC1)c1cc(F)ccc1F (stereo unspecified)
cytotoxicity at 70.5 h: 0.552%

Cc1noc(CN(C)CC2(O)CCCN(CCC3CCCCC3)C2=O)n1 (stereo unspecified)
cytotoxicity at 70.5 h: -0.981%

Cc1cn2c(CN(C)C(=O)c3nccnc3N)c(C)nc2s1
cytotoxicity at 70.5 h: 0.596%

COc1cccc(CC2CN(C3CC(C)(C)NC(C)(C)C3)CCO2)c1 (stereo unspecified)
cytotoxicity at 70.5 h: 50.4%

Cc1cnc(CNC(=O)[C@@]23CCO[C@@H]2CCN(C2CCCC2)C3)cn1
cytotoxicity at 70.5 h: -1.73%

O=S(=O)(CCNC1CCc2ncnn2C1)c1ccc(Cl)cc1 (stereo unspecified)
cytotoxicity at 70.5 h: -1.07%

CCCN1C[C@H]2CC[C@@H]1CN(Cc1cccc(-n3cccn3)c1)C2
cytotoxicity at 70.5 h: -0.983%

Cc1[nH]ccc1C(=O)N1CCCN1C(=O)OC(C)(C)C
cytotoxicity at 70.5 h: 0.542%

Cc1nnc2n1CCN(C(=O)c1cc(C)n(-c3ccccc3)c1C)C2
cytotoxicity at 70.5 h: -4.87%
